According to US20250214966A1, “Crystalline Salt Form Of A SHP2 Inhibitor” (Array BioPharma Inc., priority 2022, published 2025):
Structures can show the parent of a compound that is named as a salt.

Assay: Photostability (2xICH), HPLC
Type: physicochemical
Excerpt: Photostability (Table 12): Sample preparation: Control—about 1 g of sample was transferred into a weighting bottle and covered with a glass cover. The sample was wrapped in aluminum foil to protect from light and placed into the photostability chamber. Photostability sample: about 1 g of sample was transferred into a weighing bottle, then placed into the photostability chamber. Storage conditions: The photostability samples were stored according to ICH Photostability Option 2: A cool white fluorescent lamp designed to produce an output similar to that specified in ISO 10977 (1993), a near UV fkuorescent lamp having a spectral distribution from 320 nm to 400 nm with a maximum energy emission between 350 nm and 370 nm; a significant portion of UV should be in both bands of 320 to 360 nm and 360 to 400 nm. The photo stability and dark control samples were exposed to the light equipment providing photo intensity if 5000±500 Lx (near ultraviolet energy 0.84 W/m^2±10%) and irradiated for 12 days (samples exposed to light providing an overall illumination of not less than 1.2 million lux hours and an integrated near UV energy of not less than 200 watt hours/quare meter).
Photostability (HPLC) (Table 12): An Agilent 1100 HPLC was used with a Waters XSelect HSS T3 Column (100 angstrom, 4.6×150 mm, 5 μm). The column temperature was set to 20° C., the UV wavelength set to 254 nm, the injection volume was 10 μL, with a flow rate of 1.0 mL/min. 10 mM ammonium acetate adjusted to pH 4.8 was used as a mobile phase A, and acetonitrile was used as mobile phase B. The gradient method was set up to achieve 15% mobile phase B at 0 minutes, 95% mobile phase B at 17 minutes—held until 22 minutes, 15% mobile phase. […]
Physical (PXRD) (Table 13): Powder X-ray diffraction analysis was conducted using a Bruker AXS D8 Endeavor diffractometer equipped with a Cu radiation source. […] Diffracted radiation was detected by a PSD-Lynx Eye detector, with the detector PSD opening set at 2.99 degrees. […]

Photostability (2xICH), decrease in purity	Photostability (2xICH), photodeg RRT 1.16	Photostability (2xICH), photodeg RRT 1.62	Compound
0.53% decrease in purity	–	–	Nc1nccc(Sc2cnc(N3CCC4(CC3)Cc3ccccc3[C@H]4N)nn2)c1Cl [Example 3, (S)-1′-(6-((2-amino-3-chloropyridin-4-yl)thio)-1,2,4-triazin-3-yl)-1,3-dihydrospiro[indene-2,4′-piperidin]-1-amine Mono Succinate Salt Form 1]
–	~0.36%	~0.32%	Nc1nccc(Sc2cnc(N3CCC4(CC3)Cc3ccccc3[C@H]4N)nn2)c1Cl.Nc1nccc(Sc2cnc(N3CCC4(CC3)Cc3ccccc3[C@H]4N)nn2)c1Cl.O [Example 2, (S)-1′-(6-((2-amino-3-chloropyridin-4-yl)thio)-1,2,4-triazin-3-yl)-1,3-dihydrospiro[indene-2,4′-piperidin]-1-amine Free Base Hemihydrate (Form 1)]
